Results on 6 molecules are retold here after patent publication US6589771B1, “Methods for arousing dormant bacteria” (Immunom Technologies, Inc., priority 1999, dated 2003).

For assay [1], the system named is L. monocytogenes. The assay can be described thus: L. monocytogenes arousal by serial dilutions in PBS, growth on antibiotic agar. It is filed as cell-based. The conditions noted are these: PBS pH 7.3.
For assay [2], the system named is L. caseii. Nature of the assay: Growth of dormant L. caseii on agar with antibiotic after sequential extractions. In kind it is cell-based. The conditions noted are these: for Growth in presence of 60 IU/mL ampicillin: PBS pH 7.3. Here is the method: (§1) A culture containing 100% dormant bacteria was microfuged and the supernatant replaced with an equal volume of PBS, pH 7.3 and incubated at 37° C. After 20 minutes, the pellet was again recovered by centrifugation and resuspended in fresh PBS.
A 2 year old dormant broth culture of L. caseii was centrifuged and the supernatant replaced with an equal volume of Dulbeccos' PBS, 1× or 4× at pH 7.3, or water for 20 min. followed by different periods of adjustment at 37° C.

In assay [3] the test system is L. monocytogenes. Nature of the assay: Growth (CFUs/mL or grow-out hrs.) of dormant L. monocytogenes on agar with antibiotic after sequential PBS extractions. In kind it is cell-based. The conditions noted are these: for Growth in presence of ampicillin: PBS pH 7.3. The method, then: as §1
A 4 year old dormant broth culture of L. monocytogenes was centrifuged and the supernatant replaced with an equal volume of Dulbecco's PBS, 1×, 4×, or 10×, pH 7.3 or 6.1 for 10, 20, or 40 min. extraction periods, followed by different periods of adjustment at 37° C. This was repeated and the pellets held for various times in buffer (adjustment period) before plating on agar. Inoculated agars were held at 37° C. for various lengths of time (grow-out period).

For a further assay, the system named is L. plantarum ATCC 14917. The assay can be described thus: Dialysis of dormant L. plantarum ATCC 14917, tolerance to antibiotic. It is filed as cell-based. The conditions noted are these: retentate after four changes of 250 volumes of PBS, 44 hrs. of dialysis, no adjustment period.
Assay [4] relates to L. monocytogenes. The assay can be described thus: Dialysis plus dilution of dormant L. monocytogenes, growth in presence of antibiotic. It is filed as cell-based. Conditions: 18 hrs. adjustment period. Here is the method:
An aliqout of culture was dialyzed against 250 volumes of PBS, pH 7.3 at 37° C. with stirring for 40 min. After an adjustment period of 18 hrs., the retentate was diluted serially 1:5 in PBS, pH 7.3, and streaked on agar.

For assay [5], the system named is L. monocytogenes. Nature of the assay: Antibiotic tolerance of vegetative and aroused dormant L. monocytogenes (classification). In kind it is cell-based. Conditions: both native vegetative and aroused dormant cells.
The next assay deals with P. aeruginosa. The assay can be described thus: Growth of duplex culture of P. aeruginosa with antibiotic after sequential extractions. In kind it is cell-based. Conditions: Dulbecco's PBS pH 7.3. Here is the method:
Separate cultures containing both dormant and vegetative cells of P. aeruginosa or E. coli were centrifuged and the pellets resuspended in an equal amount of Dulbecco's PBS pH 7.3 for serial extractions of 20 min. followed by different periods of adjustment at 37° C.

Assay [6] has as its system L. caseii. The assay can be described thus: Dialysis plus dilution of dormant L. caseii, growth in presence of antibiotic. In kind it is cell-based. Conditions: for Growth in presence of 60 IU Amp/mL: dialysis, 18 hrs. adjustment period.
In assay [7] the test system is spores of the genera Bacillus and Clostridium. The conditions noted are these: substance added to the buffer; neutral suspensions heated at 65° C. for 20 minutes; cited from earlier work.
The subject of the next assay is S. aureus. The assay can be described thus: Vancomycin tolerance of aroused dormant and vegetative S. aureus. In kind it is cell-based. The conditions noted are these: aroused dormant forms after heat-killing of vegetative forms. The text has this: Dormant cells of S. aureus could be enumerated and classified in the presence of their vegetative forms by heat-killing the sensitive vegetative forms while preserving the more resistant dormant forms. […] Before heating, 4×10^7 CFUs/mL were viable, after heating, no viable cells were detected until the dormant cells were aroused by osmolal downshift gradients.

Where [8] appears, read: dilution after adjustment 1:125.
Where [9] appears, read: dilution after adjustment: None.

Regarding `CN(C)[C@@H]1C(O)=C(C(N)=O)C(=O)[C@@]2(O)C(O)=C3C(=O)c4c(O)cccc4[C@@](C)(O)[C@H]3C[C@@H]12` [tetracycline], the “Periods of adjustment required for growth on: 30 μg TC” value in the assay with L. monocytogenes [1] (serial dilutions 1:10), in the assay with L. monocytogenes [1] (serial dilutions 1:100) and in the assay with L. monocytogenes [1] (serial dilutions 1:1000) was 144 h each time.
In the case of `CC1(C)S[C@@H]2[C@H](NC(=O)[C@H](N)c3ccccc3)C(=O)N2[C@H]1C(=O)O` [ampicillin], the “Growth in presence of 60 IU amp/mL” value stood at 48 h with L. caseii [2] (L. caseii ATCC 393, Dulbecco's PBS pH 7.3, 7 × 20 min., adjustment time 144 hrs.); 24 h with L. monocytogenes [3] (Dulbecco's 4X PBS pH 7.3, 3 × 20 min., adjustment time 48 hrs.); 24 h in the assay with L. monocytogenes [3] (Dulbecco's 4X PBS pH 7.3, 3 × 20 min., adjustment time 72 hrs.); 24 h with L. monocytogenes [3] (Dulbecco's 10X PBS pH 7.3, 3 × 20 min., adjustment time 48 hrs.); 24 h in the assay on L. monocytogenes [3] (Dulbecco's 10X PBS pH 7.3, 3 × 20 min., adjustment time 72 hrs.); 24 h in the assay with L. monocytogenes [3] (Dulbecco's PBS pH 6.1, 5 × 20 min., adjustment time 120 hrs.). Also, the “Growth in presence of 60 IU amp/mL” value in the assay on L. monocytogenes [3] (Dulbecco's PBS pH 6.1, 7 × 20 min., adjustment time 96 hrs.) worked out at 24 h; in the assay on L. monocytogenes [3] (Dulbecco's PBS pH 7.3, 1 × 20 min., adjustment time 0 hrs.) it was 48 h; in the assay on L. monocytogenes [3] (Dulbecco's PBS pH 7.3, 3 × 20 min., adjustment time 0 hrs.), 48 h; in the assay with L. monocytogenes [3] (Dulbecco's PBS pH 7.3, 3 × 20 min., adjustment time 48 hrs.), 48 h; in the assay on L. monocytogenes [3] (Dulbecco's PBS pH 7.3, 3 × 20 min., adjustment time 72 hrs.) it was 48 h; with L. monocytogenes [3] (Dulbecco's PBS pH 7.3, 3 × 40 min., adjustment time 96 hrs.), 24 h. In addition, the “Growth in presence of 60 IU amp/mL” value in the assay on L. monocytogenes [3] (Dulbecco's PBS pH 7.3, 5 × 10 min., adjustment time 96 hrs.) was 24 h; in the assay on L. monocytogenes [3] (Dulbecco's PBS pH 7.3, 6 × 10 min., adjustment time 0 hrs.) it was 48 h; with L. monocytogenes [3] (Dulbecco's PBS pH 7.3, 6 × 20 min., adjustment time 0 hrs.), 48 h; with L. monocytogenes [3] (Dulbecco's PBS pH 7.3, 6 × 20 min., adjustment time 48 hrs.), 48 h; in the assay on L. monocytogenes [3] (Dulbecco's PBS pH 7.3, 6 × 20 min., adjustment time 72 hrs.), 48 h; with L. monocytogenes [3] (Dulbecco's PBS pH 7.3, 7 × 40 min., adjustment time 96 hrs.), 48 h. Also, the “Growth in presence of 60 IU amp/mL” value came to 48 h with L. monocytogenes [3] (Dulbecco's PBS pH 7.3, 9 × 20 min., adjustment time 0 hrs.); 48 h in the assay with L. monocytogenes [3] (Dulbecco's PBS pH 7.3, 9 × 20 min., adjustment time 48 hrs.); 48 h in the assay on L. monocytogenes [3] (Dulbecco's PBS pH 7.3, 9 × 20 min., adjustment time 72 hrs.); 72 h in the assay on P. aeruginosa (3 × 20 min., adjustment time 24 hrs.); 48 h in the assay with P. aeruginosa (6 × 20 min., adjustment time 0 hrs.). In addition, the “Growth in presence of 60 IU/mL ampicillin” value in the assay on L. caseii [2] (1st-5th 20 min. extraction), with L. caseii [2] (6th 20 min. + 72 hrs. @ 37° C.), in the assay with L. caseii [2] (6th 20 min. + 96 hrs. @ 37° C.) and in the assay on L. caseii [2] (Control (no extraction)) was 0 CFUs/mL in each case. Moreover, the “Growth in presence of ampicillin” value in the assay with L. monocytogenes [3] (1st 20 min. extraction) is 10^4 CFUs/mL; in the assay with L. monocytogenes [3] (2nd 20 min. extraction) it was 10^4 CFUs/mL; in the assay with L. monocytogenes [3] (3rd 20 min. extraction), 10^4 CFUs/mL; with L. monocytogenes [3] (4th 20 min. extraction), 10^5 CFUs/mL; in the assay on L. monocytogenes [3] (5th 20 min. extraction), 10^5 CFUs/mL; with L. monocytogenes [3] (6th 20 min. extraction) it was 10^5 CFUs/mL. The “Growth in presence of ampicillin” value in the assay with L. monocytogenes [3] (Control (no extraction)) is on record as 0 CFUs/mL. In addition, the “Periods of adjustment required for growth on: 60 IU Amp” value in the assay on L. monocytogenes [1] (serial dilutions 1:10), in the assay on L. monocytogenes [1] (serial dilutions 1:100), in the assay on L. monocytogenes [1] (serial dilutions 1:125) and with L. monocytogenes [1] (serial dilutions 1:1000) was 144 h throughout. The Tolerance to ampicillin entry in the assay with L. plantarum ATCC 14917 is “not tolerant”; in the assay on L. caseii [6] (L. caseii ATCC 393 aroused by dialysis pH 7.3, dilutions 1:5 and 1:5, adjustment period 124 hours at 37° C.), “not tolerant”. Moreover, the “Growth in presence of 60 IU Amp/mL” value in the assay with L. monocytogenes [4] (dilution after adjustment 1:5) is recorded as 10^4 CFUs/mL; in the assay on L. monocytogenes [4] (dilution after adjustment 1:25) it was 10^5 CFUs/mL; with L. monocytogenes [4] (setting [8]) it was 10^5 CFUs/mL; with L. monocytogenes [4] (setting [9]), 10^3 CFUs/mL; in the assay with L. caseii [6] (dilution after adjustment 1:5), 0 CFUs/mL; in the assay on L. caseii [6] (dilution after adjustment 1:25), 0 CFUs/mL. Further, the “Growth in presence of 60 IU Amp/mL” value in the assay with L. caseii [6] (setting [8]) and in the assay with L. caseii [6] (setting [9]) was 0 CFUs/mL each time. The “Tolerance to 60 IU of ampicillin per mL” value with L. monocytogenes [5] is recorded as “tolerant”.
Regarding `N[C@@H](Cc1ccc(O)cc1)C(=O)O` [L-tyrosine], in assay [7], the spores that germinate is 100%.
In the case of `Nc1ncnc2c1ncn2[C@@H]1O[C@H](CO)[C@@H](O)[C@H]1O` [adenosine], in assay [7], the spores that germinate was 100%.
Consider `C[C@H](N)C(=O)O` [L-alanine], for which, in assay [7], the spores that germinate is recorded as 100%.
`CN[C@H](CC(C)C)C(=O)N[C@H]1C(=O)N[C@@H](CC(N)=O)C(=O)N[C@H]2C(=O)N[C@H]3C(=O)N[C@H](C(=O)N[C@H](C(=O)O)c4cc(O)cc(O)c4-c4cc3ccc4O)[C@H](O)c3ccc(c(Cl)c3)Oc3cc2cc(c3O[C@@H]2O[C@H](CO)[C@@H](O)[C@H](O)[C@H]2O[C@H]2C[C@](C)(N)[C@H](O)[C@H](C)O2)Oc2ccc(cc2Cl)[C@H]1O` [vancomycin]: the “Tolerance to 30 μg vancomycin/mL” value in the assay on S. aureus is reported as “showed tolerance”.
